Test results: PMC6345492, “Thioguanine-based DENV-2 NS2B/NS3 protease inhibitors: Virtual screening, synthesis, biological evaluation and molecular modelling” (PLoS ONE, 2019)
Read-outs that look alike come from different tables or passages of the source.

Columns and labels:
DENV-2 NS2B/NS3pro [1] = molecular target: T1, DENV-2 NS2B/NS3pro (Dengue virus type 2, UniProt P14340); assay: DENV-2 NS2B/NS3pro protease inhibition assay (fluorogenic Boc-GRR-MCA substrate); format: biochemical; conditions: for IC50: 3 μM protease, 25 μM substrate
T1 construct: pQE30.CF40.gly(T).NS3pro expression plasmid; 6x-His (N); glycine linker (gly(T)) joining CF40 to NS3pro (C); made in house; host or cells: Escherichia coli strain XL1-Blue
T1 sequence (P14340 1398-1437): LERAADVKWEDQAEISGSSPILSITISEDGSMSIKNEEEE
T1 sequence (P14340 1476-1653): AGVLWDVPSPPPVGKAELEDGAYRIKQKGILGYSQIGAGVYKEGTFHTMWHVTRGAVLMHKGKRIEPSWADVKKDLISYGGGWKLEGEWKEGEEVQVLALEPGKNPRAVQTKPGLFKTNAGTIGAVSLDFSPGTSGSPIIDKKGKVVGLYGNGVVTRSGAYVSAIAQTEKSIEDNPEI
Protocol: The DENV-2 NS2B/NS3pro expression was carried out according to the established method by Yusof et al., (2000) with minor modifications according to published articles. The plasmid encoding the NS2B/NS3 protease sequence from DENV-2 was transformed into Escherichia coli strain XL1-Blue transformed with pQE30.CF40.gly(T).NS3pro expression plasmid were grown in LB medium containing 10 μg/ml ampicillin at 37°C until the OD600 reached 0.6. First, the cells were incubated at 37°C, 200 rpm until OD600 reached ~0.6. One ml of isopropyl-β-D-thiogalactopyranoside (0.5 mM in LB medium) was added to the bacterial cells for 2 hours to induce protein expression. Expression of the recombinant protein was induced by the addition of […] IPTG and the culture was incubated for 2 hours.
The cells were harvested by centrifugation at 8000 rpm (Sorvall RC-5B Refrigerated Superspeed centrifuge) for 15 minutes at […]. The cell pellets were thawed (1 g) and resuspended in lysis buffer (5 mL) followed by mixing them using vortex until milky. For purification, cells were lysed by sonication conducting (6 times 15-second pulse, duty cycle 10%, output control no 3) using Ultrasonic Cell Disruptor, Branson Sonifier 450, Germany. The lysate was incubated on ice for 1 hour and then centrifuged at 8000 rpm for 1 hour at 4°C. The soluble 6x-His-NS2B/NS3protease in its native form was filtered ([…]), batch-bound to 2 x 2 ml Ni^2+-NTA (nickel-nitrilotriacetic acid) resin (pre-equilibrated with column buffer) and incubated overnight at 4°C. The resin was cleaned up from the unbound fraction by centrifugation and the resin with bound protein was collected and loaded into columns (Bio-Rad; 1 x 3 cm). The gradient technique columns were washed extensively with 3 x 15 ml of wash buffer and further eluted with 10 ml of elution buffer for each column while being monitored using Bio-Rad Bradford protein assay. The purified protein was then analysed with 12% SDS-PAGE, pooled and stored at -80°C for further use in the dengue protease activity and inhibition studies. The dengue protease activity assay was developed as previously described with a slight modification. Briefly, the assay system comprised of 200 mM Tris-HCl (pH 8.5) buffer, DENV-2 NS2B/NS3pro and Boc-GRR-MCA as the substrate. Protease optimum assay was executed to ascertain maximum protease activity at constant concentration of the substrate (25 μM). The protease concentrations were varied within 0–10 μM. The 7-Amino-4-methylcoumarin (AMC) produced was measured as fluorescence intensity at λexcitation of 340 nm and λemission of 440 nm by using ELISA modulus microplate reader.
The compounds were also checked for its requirement to pass the pan assay interference compounds (PAINS) (http://cbligand.org/PAINS/) before tested for their inhibition activities against DENV-2 NS2B/NS3pro at a range of concentrations (0 to 300 μg/mL). […] The concentration of the protease being used was 3 μM initially incubated with the compound for 10 minutes at 37°C with 200 rpm of rotation. Subsequently, 25 μM of the substrate was added and the incubation was further prolonged for 60 minutes. The fluorescence intensity at 340/ 440 nm was measured as the AMC byproduct was released upon the peptide substrate cleavage by the protease. The experiments were triplicated and Panduratin A was used as the positive control.

DENV-2 NS2B/NS3pro [2] = molecular target: T1, DENV-2 NS2B/NS3pro; set-up: method as in PMID 16621533; conditions: competitive inhibition; cited from earlier work
[3] = TG derivatives, Table 2, read-out: IC50
[4] = six newly designed compounds, Table 3, read-out: IC50

SMILES | IC50 (DENV-2 NS2B/NS3pro [1]; [3]) | IC50 (DENV-2 NS2B/NS3pro [1]; [4]) | other results
COc1cccc(S(=O)(=O)Nc2nc(S)c3nc[nH]c3n2)c1 [Compound 4] | 68 µM | – | –
COc1ccc(S(=O)(=O)Nc2nc(S)c3nc[nH]c3n2)cc1 [Compound 5] | 55 µM | – | –
CCC(=O)Nc1nc(SC(=O)CC)c2nc[nH]c2n1 [Compound 16] | – | 97 µM | –
CC(C)C(=O)Nc1nc(SC(=O)C(C)C)c2nc[nH]c2n1 [Compound 17] | – | 80 µM | –
CCCCC(=O)Nc1nc(SC(=O)CCCC)c2nc[nH]c2n1 [Compound 18] | – | 0.38 µM | –
CCCCC(=O)Nc1nc(SCc2ccccc2)c2nc[nH]c2n1 [Compound 19] | – | 54 µM | –
CC(C)Cn1cnc2c(SCc3cccc4ccccc34)nc(N)nc21 [Compound 20] | – | 258 µM | –
CCCCC(=O)Nc1nc(SCc2ccccc2)c2ncn(Cc3ccccc3)c2n1 [Compound 21] | – | 16 µM | –
COc1cc(O)c(C(=O)[C@@H]2[C@H](CC=C(C)C)C(C)=CC[C@H]2c2ccccc2)c(O)c1 [Panduratin A, panduratin A, reference compound] | – | – | Ki (DENV-2 NS2B/NS3pro [2]): 25 µM; IC50 (DENV-2 NS2B/NS3pro [1]; NCI diversity set hits, read-out: Experimental IC50): 56 µM
Nc1nc2nc[nH]c2c(=S)[nH]1 [TG, thioguanine] | 753 µM | – | inhibition at 200 µg/mL (DENV-2 NS2B/NS3pro [1]): 56%
